Experimental data taken from patent publication US9340577B2, “HLA binding motifs and peptides and their uses” (priority 1992, dated 2016).
pIC50: −log10 of the molar value. Where two headings read alike, the source gives them in different places. No end group written: not given here.

What was measured:
B*0702 (B*0701) = B*0702 (B*0701) (Homo sapiens, UniProt P01889); experiment: biochemical; format: binding; details: for B*0701 binding: Table 25, given as whole numbers, no unit; for B*0702 binding: Table 30, unit not given
B*5301 = B*5301 (Homo sapiens, UniProt P01889, A329T/A93T/A95T/C349S/D201E/D98Y/E176V/E187L/E204Q/E69T/G107R/I218V/K202T/L105A/L119I/N104I/Q94N/R106L/R155S/R180L/S101N/S121R/S35A/S48A/T118I/V127L/V306I/V36M/Y140S/Y91F); experiment: biochemical; details: for IC50: B*5301 (nM)
B*5401 = B*5401 (Homo sapiens, UniProt P01889, A329T/C349S/D138N/D201E/E176V/E187T/E204Q/E69G/I76V/K202T/L119W/R155S/R180L/S121T/S35A/S48A/V127L/V306I/V36M/Y140L); experiment: biochemical
B*0701 = B*0701 (Homo sapiens, UniProt P01889); experiment: biochemical; details: for IC50: B*0701 (nM)
HLA-A1 (A*0101) = HLA-A1 (A*0101) (Homo sapiens, UniProt P04439, A114D/A174V/A182V/D101N/D185E/E176A/E190D/L180R/Q94H/R68K/S129P/T187R/V100A/V91M/W191G); experiment: biochemical; format: binding
A*2902 = A*2902 (Homo sapiens, UniProt P04439, A270S/D101N/D185E/E176V/E277Q/E87Q/F33T/G231S/H175R/I121M/I218V/I322F/K168Q/L300P/L318F/M331R/P208A/P217A/Q86L/T323A/T345S/V100A/V358M); experiment: biochemical; format: binding
A*3002 = A*3002 (Homo sapiens, UniProt P04439, D101N/D140H/D185E/E176R/F33S/G80R/H175R/K168Q/Q94H/R138E/R41S/V100E); experiment: biochemical; format: binding
A*2601 = A*2601 (Homo sapiens, UniProt P04439, A114D/A173T/A270S/D101N/D185E/E277Q/E87N/F33Y/G231S/I121R/I218V/K168Q/L180W/L300P/L318F/P208A/P217A/Q86R/Q94H/R138Q/S129P/T187R/T323A/T345S/V100A/V358M); experiment: biochemical; format: binding
HLA-A*0201 (HLA-A2.1) = HLA-A*0201 (HLA-A2.1) (Homo sapiens, UniProt P04439, D140Y/D185E/D98H/E176V/E277Q/G131W/G231S/I119V/I121R/I166T/I218V/L300P/L318F/N151K/N90K/P208A/P217A/Q86G/Q94H/R138H/R169H/T345S); experiment: biochemical; format: binding
HLA-A24 = format: binding, human
[1] = tested on: peptide-coated Jurkat A2/Kb target cells; design: species or system mice; details: mouse, in vivo
[2] = Binding of peptides to B7-like supermotif alleles, Table 36

Compound | pIC50 (HLA-A1 (A*0101)) | pIC50 (A*2902) | pIC50 (A*3002) | pIC50 (A*2601) | also measured
1PYPIVRICL (IPYPIVRKL) | – | – | – | – | B*0701 binding (B*0702 (B*0701)): 1
34.0397 (SPALNKMFBQI) [Peptide 34.0397] | – | – | – | – | B*0702 binding (B*0702 (B*0701)): 0.18
1292.2 (APTLWARMII) [Peptide 1292.2] | – | – | – | – | B*0702 binding (B*0702 (B*0701)): 0.39
CC[C@H](C)[C@H](NC(=O)[C@@H](NC(=O)[C@H](Cc1ccccc1)NC(=O)[C@H](CC(N)=O)NC(=O)[C@@H](NC(=O)[C@@H](NC(=O)[C@H](CS)NC(=O)[C@@H]1CCCN1C(=O)[C@@H](N)Cc1ccc(O)cc1)[C@@H](C)O)C(C)C)[C@@H](C)O)C(=O)O [15.047] | – | – | – | – | IC50 (B*5301): 102 nM; pIC50 (B*5401): 7.05
CC[C@H](C)[C@H](NC(=O)[C@H](Cc1ccc(O)cc1)NC(=O)[C@H](CC(C)C)NC(=O)[C@H](Cc1c[nH]cn1)NC(=O)CNC(=O)[C@@H](NC(=O)[C@@H]1CCCN1C(=O)[C@@H](N)CC(=O)O)[C@@H](C)CC)C(=O)N[C@@H](Cc1ccccc1)C(=O)O [15.138] | – | – | – | – | IC50 (B*5301): 2550 nM
CC[C@H](C)[C@H](NC(=O)[C@@H]1CCCN1C(=O)[C@@H](N)CCCCN)C(=O)N[C@H](C(=O)N[C@@H](CCC(N)=O)C(=O)N[C@@H](Cc1ccc(O)cc1)C(=O)N[C@@H](CC(=O)O)C(=O)N[C@@H](CC(N)=O)C(=O)N[C@@H](Cc1ccccc1)C(=O)O)C(C)C [15.185] | – | – | – | – | IC50 (B*5301): 2040 nM
CSCC[C@H](NC(=O)[C@H](CC(C)C)NC(=O)[C@H](C)NC(=O)[C@@H]1CCCN1C(=O)[C@@H](N)Cc1ccc(O)cc1)C(=O)N1CCC[C@H]1C(=O)N[C@@H](CC(C)C)C(=O)N[C@@H](Cc1ccc(O)cc1)C(=O)N[C@@H](C)C(=O)O [16.008] | – | – | – | – | IC50 (B*0701; [2]): 524 nM; IC50 (B*5301): 2580 nM; pIC50 (B*5401): 9.10
CC[C@H](C)[C@H](NC(=O)[C@H](CCC(=O)O)NC(=O)CNC(=O)[C@@H]1CCCN1C(=O)[C@@H](N)CO)C(=O)N[C@@H](CC(N)=O)C(=O)N[C@@H](CCCNC(=N)N)C(=O)N[C@H](C(=O)N[C@@H](C)C(=O)O)C(C)C [16.015] | – | – | – | – | IC50 (B*0701; [2]): 18000 nM; pIC50 (B*5401): 5.55
CC[C@H](C)[C@H](NC(=O)[C@H](Cc1ccc(O)cc1)NC(=O)[C@H](CC(C)C)NC(=O)[C@H](Cc1c[nH]cn1)NC(=O)CNC(=O)[C@@H](NC(=O)[C@@H]1CCCN1C(=O)[C@@H](N)CC(=O)O)[C@@H](C)CC)C(=O)N[C@@H](Cc1ccccc1)C(=O)N[C@@H](C)C(=O)O [16.201] | – | – | – | – | IC50 (B*5301): 20700 nM; pIC50 (B*5401): 6.44
CC(C)C[C@H](NC(=O)[C@H](CC(=O)O)NC(=O)[C@H](CCC(N)=O)NC(=O)[C@@H](N)[C@@H](C)O)C(=O)N[C@H](C(=O)N[C@@H](CCC(N)=O)C(=O)N[C@@H](CCC(=O)O)C(=O)N[C@@H](CCCCN)C(=O)N[C@@H](Cc1ccc(O)cc1)C(=O)O)C(C)C [Peptide 83.0099] | 7.04 | < 4.70 | 5.68 | – | –
CC[C@H](C)[C@H](NC(=O)[C@@H]1CCCN1C(=O)[C@H](CC(=O)O)NC(=O)[C@@H](NC(=O)[C@H](CCC(=O)O)NC(=O)[C@@H](N)CCSC)C(C)C)C(=O)NCC(=O)N[C@@H](Cc1c[nH]cn1)C(=O)N[C@@H](CC(C)C)C(=O)N[C@@H](Cc1ccc(O)cc1)C(=O)O [Peptide 1461.06] | 6.43 | 6.51 | 7.46 | 7.82 | –
CC[C@H](C)[C@H](NC(=O)[C@@H](NC(=O)[C@@H](NC(=O)[C@@H](N)CS)[C@@H](C)O)[C@@H](C)O)C(=O)N[C@@H](Cc1c[nH]cn1)C(=O)N[C@@H](Cc1ccc(O)cc1)C(=O)N[C@@H](CC(N)=O)C(=O)N[C@@H](Cc1ccc(O)cc1)C(=O)O [Peptide 9012.0113] | 5.46 | 5.51 | – | 6.05 | –
ATDLGLSY [Peptide 9012.0112] | 8.02 | 5.66 | – | 5.55 | –
ATSPAFDNLYY [Peptide 9012.0188] | 8.31 | 8.03 | 9.05 | 7.39 | –
CILESCFRAVI | – | – | – | – | binding to HLA-A2.1 (column 3; no allele head shown for these rows) (HLA-A*0201 (HLA-A2.1)): 0.0017; binding to HLA-A24 (column 6; no allele head shown for these rows) (HLA-A24): 0.0008; B*0701 binding (B*0702 (B*0701)): 0
CTDIHYNY [Peptide 9012.0114] | 7.17 | 5.59 | – | 5.66 | –
DMDDLVDAEEY [Peptide 9012.0184] | 6.37 | < 4.70 | 4.74 | 5.25 | –
DPSHITAETA [16.183] | – | – | – | – | IC50 (B*0701; binding of B7-like supermotif 10-mer peptides to purified HLA-B*0701): 2350 nM; pIC50 (B*5401): 5.59
EPISPIETV [15.073] | – | – | – | – | pIC50 (B*0701): 5.46; pIC50 (B*5401): 8.01
EPIVGAETF [15.091] | – | – | – | – | IC50 (B*5301): 4770 nM

Compound | pIC50 (HLA-A1 (A*0101)) | pIC50 (A*2902) | pIC50 (A*3002) | pIC50 (A*2601) | also measured
ETVPISHLY [Peptide 9012.0132] | 6.63 | 6.06 | 8.66 | 9.46 | –
FAMPNFQTL | – | – | – | – | B*0701 binding (B*0702 (B*0701)): 0
FAMPNFYTL | – | – | – | – | B*0701 binding (B*0702 (B*0701)): 0
FTQENYLEY [Peptide 9012.0137] | 7.89 | 7.64 | 7.00 | 8.10 | –
FTTCLGLSY [Peptide 9012.0136] | 7.82 | 8.66 | 5.89 | 8.89 | –
GSRAHSSHL | – | – | – | – | B*0701 binding (B*0702 (B*0701)): 0
GTDCTTIHYNY [Peptide 9012.0200] | 7.54 | 6.02 | 7.12 | 5.31 | –
GTDPACYEF [Peptide 9012.0135] | 6.33 | 5.71 | 5.01 | – | –
GTDVRAMAIY [Peptide 9012.0156] | – | – | 8.85 | 6.02 | –
GTRVRAMAI | – | – | – | – | B*0701 binding (B*0702 (B*0701)): 0
GTSSFSTTINY [Peptide 9012.0190] | 5.38 | – | 7.07 | 5.83 | –
GTSSLPTTMNY [Peptide 9012.0194] | – | 6.59 | 8.12 | 5.60 | –
IPFPIVRYL | – | – | – | – | B*0701 binding (B*0702 (B*0701)): 0
IPYPIVRSL | – | – | – | – | B*0701 binding (B*0702 (B*0701)): 1
ITSKASEY [Peptide 9012.0108] | 5.48 | 4.82 | 6.78 | 5.50 | –
KPLDGEYFTL | – | – | – | – | B*0701 binding (B*0702 (B*0701)): 0
LLMGTLGIV | – | – | – | – | CTL response in HLA-A2.1 transgenic mice [1]: most immunogenic
LPENNVLSPL | – | – | – | – | B*0701 binding (B*0702 (B*0701)): 0
LTHFLLLKY [Peptide 9012.0134] | 7.49 | 8.89 | 8.49 | 6.43 | –
LTQENYLEY [Peptide 9012.0133] | 7.80 | 7.66 | 7.64 | 7.52 | –

Compound | pIC50 (HLA-A1 (A*0101)) | pIC50 (A*2902) | pIC50 (A*3002) | pIC50 (A*2601) | also measured
MPRGVVVTL | – | – | – | – | B*0701 binding (B*0702 (B*0701)): 3
NTDRHSVVVPY [Peptide 9012.0198] | – | 5.77 | 5.01 | 5.34 | –
PTDDPSPLQRY [Peptide 9012.0186] | 7.49 | 6.03 | 6.36 | < 4.70 | –
QPDDAVYKL | – | – | – | – | B*0701 binding (B*0702 (B*0701)): 0
RYRPGTVAL | – | – | – | – | B*0701 binding (B*0702 (B*0701)): 0
SPLLLSTTEQ [15.226] | – | – | – | – | pIC50 (B*0701): 4.67; pIC50 (B*5301): 7.26
SSDPSQKTY [Peptide 9012.0139] | 7.43 | 5.01 | – | < 4.70 | –
SSDSTTINY [Peptide 9012.0130] | 8.07 | – | 6.05 | – | –
STVPSQKTY [Peptide 9012.0140] | < 4.70 | < 4.70 | – | 6.38 | –
TIHDIILECV | – | – | – | – | CTL response in HLA-A2.1 transgenic mice [1]: most immunogenic
TMDYPLWSQSY [Peptide 9012.0196] | – | 6.14 | 7.00 | 6.38 | –
TPVNSQLGNI [15.246] | – | – | – | – | pIC50 (B*5301): 4.77
VTGPGPGY [Peptide 83.0098] | 5.73 | 5.72 | 6.52 | – | –
WPLYGNEGL [15.041] | – | – | – | – | IC50 (B*0701; [2]): 859 nM; IC50 (B*5301): 6890 nM
YPAEITLYW | – | – | – | – | B*0701 binding (B*0702 (B*0701)): 0
YPKVKQWPL | – | – | – | – | B*0701 binding (B*0702 (B*0701)): 0
YTMAGVGSPY [Peptide 9012.0153] | 8.01 | 8.66 | 8.46 | 9.49 | –
YVMAGVGSPY [Peptide 9012.0152] | 6.91 | 8.47 | 7.92 | 8.77 | –
